Laboratory results as given in patent US9018258B2, “Substituted 1-benzylcycloalkylcarboxylic acids and the use thereof” (Bayer Intellectual Property GmbH, priority 2010, dated 2015).

biological target: T1, sGC (Rattus norvegicus, UniProt P20595); experiment: Action at a recombinant guanylate cyclase reporter cell line (CHO reporter cell); format: cell-based; conditions: CHO reporter cell in vitro
T1 construct: expressed in transfected cells; host or cells: CHO reporter cell
Experimental: The cellular action of the compounds according to the invention is determined at a recombinant guanylate cyclase reporter cell line, as described in F. Wunder et al., Anal. Biochem. 339, 104-112 (2005).

T1 sequence (P19686 whole entry partner): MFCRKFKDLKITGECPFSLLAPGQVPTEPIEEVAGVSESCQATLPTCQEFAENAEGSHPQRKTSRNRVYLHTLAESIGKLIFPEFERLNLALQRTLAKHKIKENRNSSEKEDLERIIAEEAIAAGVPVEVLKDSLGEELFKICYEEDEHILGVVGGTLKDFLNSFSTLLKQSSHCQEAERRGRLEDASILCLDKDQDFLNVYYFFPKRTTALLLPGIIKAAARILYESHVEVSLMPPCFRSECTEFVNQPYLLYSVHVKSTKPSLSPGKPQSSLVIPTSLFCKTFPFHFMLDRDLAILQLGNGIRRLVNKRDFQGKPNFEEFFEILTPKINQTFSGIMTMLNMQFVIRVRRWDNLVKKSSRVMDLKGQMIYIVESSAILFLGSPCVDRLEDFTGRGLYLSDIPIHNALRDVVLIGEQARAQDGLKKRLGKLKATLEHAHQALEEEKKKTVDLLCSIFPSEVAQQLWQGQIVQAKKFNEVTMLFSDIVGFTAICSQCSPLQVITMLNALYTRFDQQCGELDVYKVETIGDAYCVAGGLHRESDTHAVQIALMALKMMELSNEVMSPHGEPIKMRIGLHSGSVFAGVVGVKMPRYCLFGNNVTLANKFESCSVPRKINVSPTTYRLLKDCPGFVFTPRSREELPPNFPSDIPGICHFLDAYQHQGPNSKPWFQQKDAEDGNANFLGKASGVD
T1 sequence (P20595 whole entry): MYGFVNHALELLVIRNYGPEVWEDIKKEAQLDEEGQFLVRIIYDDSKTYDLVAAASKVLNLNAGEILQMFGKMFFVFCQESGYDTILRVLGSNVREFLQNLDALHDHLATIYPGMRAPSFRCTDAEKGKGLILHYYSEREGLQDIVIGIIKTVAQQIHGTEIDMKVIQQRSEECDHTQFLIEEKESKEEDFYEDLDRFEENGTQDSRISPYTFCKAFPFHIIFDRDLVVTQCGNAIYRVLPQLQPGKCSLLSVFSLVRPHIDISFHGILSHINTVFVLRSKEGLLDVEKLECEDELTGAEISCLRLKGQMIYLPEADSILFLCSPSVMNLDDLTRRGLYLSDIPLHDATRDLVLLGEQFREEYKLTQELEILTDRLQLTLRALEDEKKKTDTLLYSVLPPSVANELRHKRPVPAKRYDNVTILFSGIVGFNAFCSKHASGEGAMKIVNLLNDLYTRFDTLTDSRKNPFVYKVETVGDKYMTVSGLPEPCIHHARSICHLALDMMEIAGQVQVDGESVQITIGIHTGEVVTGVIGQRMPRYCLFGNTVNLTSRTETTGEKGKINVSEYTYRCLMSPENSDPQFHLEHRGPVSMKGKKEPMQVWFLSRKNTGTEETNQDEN

Compound	MEC (minimum effective concentration), sGC-activating activity in the CHO reporter cell
O=C(Nc1cccc(CC2(C(=O)O)CC2)c1F)C(c1ccc(Cl)cc1)C1CCCC1 (racemic) [Example 6, (+/−)-1-(3-{[(4-chlorophenyl)(cyclopentyl)acetyl]-amino}-2-fluorobenzyl)cyclopropanecarboxylic acid]	30 nM
O=C(Nc1cc(CC2(C(=O)O)CC2)ccc1F)C(c1ccc(Cl)cc1)C1CCCC1 (racemic) [Example 8, (+/−)-1-(3-{[(4-chlorophenyl)(cyclopentyl)acetyl]-amino}-4-fluorobenzyl)cyclopropanecarboxylic acid]	3 nM
CCc1ccc(C(C(=O)Nc2cc(CC3(C(=O)O)CC3)ccc2F)C(C)C(F)(F)F)cc1 (racemic) [Example 9, (+/−)-1-(3-{[2-(4-ethylphenyl)-4,4,4-trifluoro-3-methylbutanoyl]amino}-4-fluorobenzyl)-cyclopropanecarboxylic acid]	1 nM
O=C(Nc1cc(CC2(C(=O)O)CC2)ccc1F)C(c1ccc(Cl)cc1F)C1CCCC1 (racemic) [Example 11, (+/−)-1-(3-{[(4-chloro-2-fluorophenyl)(cyclo-pentyl)acetyl]amino}-4-fluorobenzyl)-cyclopropanecarboxylic acid]	1 nM
O=C(Nc1cccc(CC2(C(=O)O)CC2)c1)C(c1ccc(C=C(F)F)cc1)C1CCCC1 (racemic) [Example 12, (+/−)-1-[3-({cyclopentyl[4-(2,2-difluorovinyl)-phenyl]acetyl}amino)benzyl]cyclopropane-carboxylic acid]	100 nM
C=Cc1ccc(C(C(=O)Nc2cccc(CC3(C(=O)O)CC3)c2)C2CCCC2)cc1 (racemic) [Example 13, (+/−)-1-(3-{[cyclopentyl(4-vinylphenyl)acetyl]-amino}benzyl)cyclopropanecarboxylic acid]	30 nM
O=C(Nc1cccc(CC2(C(=O)O)CC2)c1)C(c1ccc(CC(F)F)cc1)C1CCCC1 (racemic) [Example 14, (+/−)-1-[3-({cyclopentyl[4-(2,2-difluoroethyl)-phenyl]acetyl}amino)benzyl]cyclopropane-carboxylic acid]	100 nM
N#Cc1ccc(C(C(=O)Nc2cc(CC3(C(=O)O)CC3)ccc2F)C2CCCC2)cc1 (racemic) [Example 15, (+/−)-1-(3-{[(4-cyanophenyl)(cyclopentyl)acetyl]-amino}-4-fluorobenzyl)cyclopropanecarboxylic acid]	30 nM
O=C(Nc1cc(CC2(C(=O)O)CC2)ccc1F)C(c1ccc([N+](=O)[O-])cc1)C1CCCC1 (racemic) [Example 16, (+/−)-1-(3-{[(4-nitrophenyl)(cyclopentyl)acetyl]-amino}-4-fluorobenzyl)cyclopropanecarboxylic acid]	10 nM
O=C(Nc1cccc(CC2(C(=O)O)CC2)c1)C(c1ccc(C(F)(F)F)cc1)C1CCCC1 (racemic) [Example 53, (+/−)-1-[3-({Cyclopentyl[4-(trifluoromethyl)phenyl]acetyl}amino)benzyl]cyclopropanecarboxylic acid]	10 nM
O=C(Nc1cc(CC2(C(=O)O)CC2)ccc1F)C(c1ccc(Cl)cc1)C1CCCC1(F)F (racemic) [Example 65, 1-(3-{[(4-Chlorophenyl)(2,2-difluorocyclopentyl)acetyl]amino}-4-fluorobenzyl)cyclopropane-carboxylic acid]	5.3 nM
O=C(Nc1cc(CC2(C(=O)O)CC2)ccc1F)C(c1ccc(Cl)cc1)C1CCC(F)(F)C1 (single isomer, unassigned) [Example 78, 1-(3-{[(4-Chlorophenyl)(3,3-difluorocyclopentyl)acetyl]amino}-4-fluorobenzyl)cyclopropanecarboxylic acid]	3 nM
CC(C(C(=O)Nc1cccc(CC2(C(=O)O)CC2)c1)c1ccc(C(F)(F)F)cc1)C(F)(F)F (single isomer, unassigned) [Example 80, 1-[3-({4,4,4-Trifluoro-3-methyl-2-[4-(trifluoromethyl)phenyl]butanoyl}amino)benzyl]cyclo-propanecarboxylic acid]	3 nM
CC(C(C(=O)Nc1cccc(CC2(C(=O)O)CC2)c1)c1ccc(Cl)cc1)C(F)(F)F (single isomer, unassigned) [Example 84, 1-(3-{[2-(4-Chlorophenyl)-4,4,4-trifluoro-3-methylbutanoyl]amino}benzyl)cyclopropane-carboxylic acid]	20 nM
C[C@H]([C@H](C(=O)Nc1cc(C(O)C2(C(=O)O)CC2)ccc1Cl)c1ccc(Cl)cc1)C(F)(F)F (single isomer, unassigned) [Example 103]	60 nM
C[C@H]([C@H](C(=O)Nc1cc(C(O)C2(C(=O)O)CC2)ccc1Cl)c1ccc(Cl)cc1)C(F)(F)F (single isomer, unassigned) [Example 104]	20 nM
C[C@H]([C@H](C(=O)Nc1cc(C(OC2CC2)C2(C(=O)O)CC2)ccc1Cl)c1ccc(Cl)cc1)C(F)(F)F (single isomer, unassigned) [Example 113]	0.3 nM
C[C@H]([C@H](C(=O)Nc1cc(C(OC2CC2)C2(C(=O)O)CC2)ccc1Cl)c1ccc(Cl)cc1)C(F)(F)F (single isomer, unassigned) [Example 114]	3 nM
O=C(Nc1cc(CC2(C(=O)O)CC2)ccc1F)[C@H](c1ccc(Cl)cc1)C1CCCC1(F)F (single isomer, unassigned; (+)) [Example 67]	3 nM
C[C@H]([C@H](C(=O)Nc1cc(CC2(C(=O)O)CC2)ccc1F)c1ccc(F)cc1)C(F)(F)F [Example 22, (+)-1-(4-fluoro-3-{[(2S,3R)-4,4,4-trifluoro-2-(4-fluorophenyl)-3-methylbutanoyl]amino}-benzyl)cyclopropanecarboxylic acid]	10 nM
CCc1ccc([C@@H](C(=O)Nc2cc(CC3(C(=O)O)CC3)ccc2F)[C@@H](C)C(F)(F)F)cc1 [Example 25, (+)-1-(3-{[(2S,3R)-2-(4-ethylphenyl)-4,4,4-tri-fluoro-3-methylbutanoyl]amino}-4-fluorobenzyl)-cyclopropanecarboxylic acid]	0.3 nM
C[C@H]([C@H](C(=O)Nc1cccc(CC2(C(=O)O)CC2)c1Cl)c1ccc(Cl)cc1)C(F)(F)F [Example 27, (+)-1-(2-chloro-3-{[(2S,3R)-2-(4-chlorophenyl)-4,4,4-trifluoro-3-methylbutanoyl]amino}benzyl)-cyclopropanecarboxylic acid]	100 nM
C[C@H]([C@H](C(=O)Nc1ccc(Cl)c(CC2(C(=O)O)CC2)c1F)c1ccc(Cl)cc1)C(F)(F)F [Example 28, 1-(6-chloro-3-{[(2S,3R)-2-(4-chlorophenyl)-4,4,4-trifluoro-3-methylbutanoyl]amino}-2-fluorobenzyl)cyclopropanecarboxylic acid]	3 nM
O=C(Nc1cc(CC2(C(=O)O)CC2)ccc1F)C(c1ccc(Cl)cc1)C1CCC(F)(F)C1 (stereo not drawn) [Example 34, 1-(3-{[(4-chlorophenyl)(3,3-difluorocyclopentyl)-acetyl]amino}-4-fluorobenzyl)cyclopropane-carboxylic acid]	10 nM
O=C(Nc1cc(CC2(C(=O)O)CC2)ccc1Cl)C(c1ccc(Cl)cc1)C1CCC(F)(F)C1 (stereo not drawn) [Example 35, 1-(3-{[(4-chlorophenyl)(3,3-difluorocyclopentyl)-acetyl]amino}-4-chlorobenzyl)cyclopropane-carboxylic acid]	10 nM
CC(C)c1ccc([C@@H](C(=O)Nc2cc(CC3(C(=O)O)CC3)ccc2F)[C@@H](C)C(F)(F)F)cc1 [Example 37, 1-(4-fluoro-3-{[(2S,3R)-4,4,4-trifluoro-2-(4-isopropylphenyl)-3-methylbutanoyl]amino}-benzyl)cyclopropanecarboxylic acid]	0.1 nM
C[C@H]([C@H](C(=O)Nc1cc(CC2(C(=O)O)CC2)ccc1F)c1ccc(C(C)(C)C)cc1)C(F)(F)F [Example 39, 1-(3-{[(2S,3R)-2-(4-tert-butylphenyl)-4,4,4-trifluoro-3-methylbutanoyl]amino}-4-fluorobenzyl)cyclopropanecarboxylic acid]	0.3 nM
C[C@H]([C@H](C(=O)Nc1cc(CC2(C(=O)O)CC2)ccc1Cl)c1ccc(C(F)(F)F)cc1)C(F)(F)F [Example 41, 1-[4-chloro-3-({(2S,3R)-4,4,4-trifluoro-3-methyl-2-[4-(trifluoromethyl)phenyl]butanoyl}amino)-benzyl]cyclopropanecarboxylic acid]	1 nM
CC(C(C(=O)Nc1cc(CC2(C(=O)O)CC2)ccc1Cl)c1ccc(CC(F)(F)F)cc1)C(F)(F)F (stereo not drawn) [Example 46, 1-[4-chloro-3-({4,4,4-trifluoro-3-methyl-2-[4-(2,2,2-trifluoroethyl)phenyl]butanoyl}amino)-benzyl]cyclopropanecarboxylic acid]	1 nM
Cc1cc(C(C(=O)Nc2cccc(CC3(C(=O)O)CC3)c2)C(C)C(F)(F)F)ccc1Cl (stereo not drawn) [Example 49, 1-(3-{[2-(4-chloro-3-methylphenyl)-4,4,4-trifluoro-3-methylbutanoyl]amino}benzyl)-cyclopropanecarboxylic acid]	30 nM
